We go through seven compounds from ChEMBL document CHEMBL3259599, “Novel colchicine-site binders with a cyclohexanedione scaffold identified through a ligand-based virtual screening approach” (J Med Chem, 2014).

Molecules are shown by their SMILES. Calls of active or inactive are those of the source. The calls are words filed in the database; no cut-off is given here.

Data set [1] can be described thus: Antiproliferative activity against HMEC1 after 4 days by coulter counter analysis. Particulars: Homo sapiens, HMEC-1, 96 h. Type of data set: functional.
A further data set has as its system HeLa. The data set is described as follows: Antiproliferative activity against human HeLa cells after 4 days by coulter counter analysis. In kind it is functional, cell-based. Particulars: 96 h.
The next data set relates to Serum. The data set is described as follows: (§1) Metabolic stability in 10% human serum assessed as compound remaining at 100 uM measured after 3 hrs by HPLC analysis. Particulars: serum, 3 h, 100 µM. Type of data set: ADME.
For data set [2], the target named is T1, Tubulin (Bos taurus) (UniProt Q6B856+Q862L2+Q862F3). The data set can be described thus: Displacement of MTC from calf brain tubulin colchicine binding site at 20 uM by fluorescence spectroscopic analysis.
Data set [3] is described as follows: Antiproliferative activity against BAEC after 3 days by coulter counter analysis. In kind it is functional. Particulars: Bos taurus, 72 h.
Data set [4] can be described thus: Antiproliferative activity against MBEC after 3 days by coulter counter analysis. In kind it is functional, Mus musculus.
In a further data set the test system is CCRF-CEM. The data set can be described thus: Antiproliferative activity against human CEM cells after 48 to 96 hrs by coulter counter analysis. In kind it is functional, cell-based.
Data set [5] concerns MDA-MB-231. The data set can be described thus: Antimigratory activity against human MDA-MB-231 cells at 2 to 10 uM after 17 hrs by Transwell assay. In kind it is functional, cell-based.
The test system of a further data set is Liver. The data set is described as follows: (§2) Metabolic stability in 50% mouse liver extract assessed as compound remaining at 100 uM measured after 3 hrs by HPLC analysis. Type of data set: ADME, tissue-based. Particulars: 3 h, 100 µM.
Data set [6] concerns MDA-MB-231. The data set is described as follows: Antiinvasive activity against human MDA-MB-231 cells at 2 to 10 uM after 17 hrs by Transwell assay. Type of data set: functional, cell-based.
The test system of a further data set is L1210. The data set is described as follows: Antiproliferative activity against mouse L1210 cells after 48 to 96 hrs by coulter counter analysis. Type of data set: functional, cell-based.
The subject of data set [7] is MDA-MB-231. The data set can be described thus: Antimigratory activity against human MDA-MB-231 cells at 0.08 uM after 17 hrs by Transwell assay. Type of data set: functional, cell-based.
Data set [8] deals with MDA-MB-231. The data set can be described thus: Antiinvasive activity against human MDA-MB-231 cells at 0.08 uM after 17 hrs by Transwell assay. In kind it is functional, cell-based.
Data set [9] has as its system MDA-MB-231. The data set is described as follows: Competitive binding affinity to beta-tubulin in human MDA-MB-231 cells assessed as inhibition of protein-N/N'-ethylene-bis(iodoacetamide) adduct formation at 0.5 uM preincubated for 16 hrs followed by N/N'-ethylene-bis(iodoacetamide) formation measured after 1.5 hrs by Western blot analysis. In kind it is cell-based. (In general: In western blotting, separated proteins are transferred to a membrane and probed.)

Data set [10] relates to HMEC-1. The data set is described as follows: Antivascular activity in HMEC1 cells assessed as destruction of cord like structure at 0.3 to 1 uM after 90 mins by matrigel assay. Type of data set: functional, cell-based. Particulars: Homo sapiens.
Data set [11] can be described thus: Cell cycle arrest in HMEC1 cells assessed as accumulation at subG1 phase at 0.03 uM after 24 hrs by propidium iodide staining-based flow cytometric analysis. In kind it is functional. Particulars: Homo sapiens, HMEC-1.
A short description of data set [12]: Cell cycle arrest in HMEC1 cells assessed as accumulation at G2/M phase at 0.03 uM after 24 hrs by propidium iodide staining-based flow cytometric analysis. Type of data set: functional. Particulars: Homo sapiens, HMEC-1. Background: In flow cytometry, cells or beads pass a laser one at a time.
Data set [13] has as its system MDA-MB-231. The data set can be described thus: Antiproliferative activity against human MDA-MB-231 cells at 0.08 uM after 17 hrs. In kind it is functional, cell-based.
For the next data set, the species on record is Rattus norvegicus. The data set can be described thus: Binding affinity to rat brain tubulin at 37 degC after 1 to 2 mins by DEAE cellulose filter paper method.
Data set [14] is described as follows: Cell cycle arrest in HMEC1 cells assessed as accumulation at subG1 phase at 1 uM after 24 hrs by propidium iodide staining-based flow cytometric analysis. In kind it is functional. Particulars: Homo sapiens, HMEC-1.
Data set [15] in a line: Cell cycle arrest in HMEC1 cells assessed as accumulation at G2/M phase at 1 uM after 24 hrs by propidium iodide staining-based flow cytometric analysis. Particulars: Homo sapiens, HMEC-1. Type of data set: functional.
Data set [16] has as its system MDA-MB-231. The data set is described as follows: Antiinvasive activity against human MDA-MB-231 cells at 0.4 uM after 17 hrs by Transwell assay. Type of data set: functional, cell-based.
Data set [17] in a line: as §1. In kind it is ADME. Particulars: 10% human serum, read-out: Stability.
Data set [18] has as its system MDA-MB-231. The data set can be described thus: Antimigratory activity against human MDA-MB-231 cells at 0.4 uM after 17 hrs by Transwell assay. Type of data set: functional, cell-based.
Data set [19] deals with HMEC-1. The data set is described as follows: Induction of apoptosis in HMEC1 at 0.3 uM after 24 hrs by propidium iodide staining-based flow cytometric analysis. In kind it is functional. Particulars: Homo sapiens.
For data set [20], the system named is MDA-MB-231. The data set is described as follows: Antiproliferative activity against human MDA-MB-231 cells at 0.4 uM after 17 hrs. Type of data set: functional, cell-based.
The subject of data set [21] is MDA-MB-231. The data set can be described thus: Competitive binding affinity to beta-tubulin in human MDA-MB-231 cells assessed as inhibition of protein-N/N'-ethylene-bis(iodoacetamide) adduct formation at 10 uM preincubated for 16 hrs followed by N/N'-ethylene-bis(iodoacetamide) formation measured after 1.5 hrs by Western blot analysis. Type of data set: cell-based.

Data set [22] is described as follows: as §2. In kind it is ADME, tissue-based. Particulars: 50% mouse liver extract, read-out: Stability.
Data set [23] has as its target T1, Tubulin (Bos taurus). The data set can be described thus: Displacement of R-PT from calf brain tubulin at 25 degC by fluorescence spectroscopic analysis.
In data set [24] the test system is HMEC-1. The data set is described as follows: Antivascular activity in HMEC1 cells assessed as destruction of cord like structure at 3 uM after 90 mins by matrigel assay. In kind it is functional, cell-based. Particulars: Homo sapiens.
Data set [25] has as its target T2, Tubulin (Homo sapiens) (UniProt P68371+Q9H4B7+P0DPH7+P68366+Q13509+Q71U36+P04350+Q3ZCM7+P07437+P68363+Q9BQE3+Q6PEY2+Q13885+Q9BVA1+Q9BUF5). The data set is described as follows: Binding affinity to tubulin in human MDA-MB-231 cells assessed as inhibition of mitotic spindle formation at 1 uM after 8 hrs by DAPI staining-based fluorescence microscopic analysis. Type of data set: cell-based.

For data set [26], the target named is T2, Tubulin (Homo sapiens).
Description: Binding affinity to tubulin (unknown origin)

The IC50 is the concentration that gives 50% inhibition. High values mean a need for much substance, low ones inhibition by little substance. On to `CCC(Nc1ccccc1O)=C1C(=O)CC(c2ccccc2)CC1=O` (stereo not drawn), for which the half-inhibitory concentration (IC50) is 22000 nM in data set [1]; 11000 nM with HeLa; 35000 nM in [3]; 13000 nM in [4]; 15000 nM with CCRF-CEM; 13000 nM with L1210. Further, the Stability entry with Serum and in the data set with Liver was “Unstable” throughout. In addition, the inhibition result at Tubulin (Bos taurus) [2] is “Active”. Also, the inhibition result in the data set with MDA-MB-231 [5] and in the data set with MDA-MB-231 [6] was “inactive” in each case.

Take `COc1cc2c(c(OC)c1OC)-c1ccc(OC)c(=O)cc1[C@@H](NC(C)=O)CC2` [COLCHICINE]: the inhibition entry in the data set on MDA-MB-231 [7], in the data set on MDA-MB-231 [8] and in the data set with MDA-MB-231 [9] was “Active” in each case. The IC50 in [3] came out at 6.9 nM; in data set [4] it was 31 nM; in the data set with L1210 it was 10 nM. The result (with HMEC-1 [10]; in [11]; in data set [12]; in the data set with MDA-MB-231 [13]) was Active.

In the data set filed under Rattus norvegicus, `COc1cc([C@@H]2c3cc4c(cc3[C@H](O)[C@H]3COC(=O)[C@H]23)OCO4)cc(OC)c1OC` gave a Ka of 1.8 ×10⁶ /M.

For `CC(Nc1ccccc1C)=C1C(=O)CC(c2ccccc2)CC1=O` (stereo not drawn), the IC50 in data set [1] was 260 nM; in the data set on HeLa it was 480 nM; in [3], 170 nM; in [4], 320 nM; in the data set on CCRF-CEM it was 680 nM; in the data set with L1210 it was 300 nM. In addition, the outcome in data set [14] and in data set [15] was Active.

On to `COc1ccccc1NC(C)=C1C(=O)CC(c2ccccc2)CC1=O` (stereo not drawn), for which the inhibition result in the data set on MDA-MB-231 [16], in the data set with MDA-MB-231 [18], on Tubulin (Bos taurus) [2], in the data set on MDA-MB-231 [21] and on Tubulin (Homo sapiens) [25] was “Active” in each case. Also, the IC50 in [1] is 90 nM; with HeLa, 180 nM; in data set [3] it was 90 nM; in [4], 120 nM; with CCRF-CEM, 180 nM; in the data set on L1210, 160 nM. The results for the remaining at 3 h, 100 µM in [17] and in [22] were 70% and above 90%, respectively. Also, the result (in data set [14]; in the data set on HMEC-1 [19]; with MDA-MB-231 [20]; with HMEC-1 [24]; in data set [15]) was Active. In addition, the Ka on Tubulin (Bos taurus) [23] was determined as 9.6 ×10⁶ /M.

With `COc1cccc(C2CC(=O)C(=C(C)Nc3ccccc3OC)C(=O)C2)c1` (stereo not drawn), the IC50 in [1] came out at 300 nM; with HeLa, 690 nM; in data set [3], 230 nM; in [4] it was 410 nM; with CCRF-CEM it was 240 nM; in the data set on L1210, 210 nM. Besides, the inhibition entry at Tubulin (Bos taurus) [2] was “Active”. Also, at Tubulin (Bos taurus) [23], the Ka worked out at 7.5 ×10⁶ /M.

On Tubulin (Homo sapiens) [26], `COC(=O)Nc1nc2cc(C(=O)c3cccs3)ccc2[nH]1` had a Ka of 4 ×10⁵ /M.
